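Cultured in 96-well plates, cells were exposed to test compound for 48 hours across five concentrations. The concentration for 50% growth inhibition is given as GI50. TGI marks complete inhibition of growth.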 A value given as a limit tells only on which side of the number the result lay.

Among the test systems are NCI-H23 lung; SF-539 CNS; HCT-15 colon; SF-295 CNS; NCI-H226 lung; MOLT-4 leukemia; M14 melanoma; A498 renal; MCF7 breast.
What all share (test): DTP human tumour cell line panel, 48 h

In the case of `Oc1ccc(Br)cc1C=Nc1ccc(N=Cc2cc(Br)ccc2O)cc1`, the TGI in the assay on NCI-H23 lung, in the assay on SF-539 CNS, in the assay on HCT-15 colon, with SF-295 CNS, with NCI-H226 lung and with MOLT-4 leukemia was more than 100 µM throughout. In addition, the TGI in the assay with M14 melanoma and in the assay with A498 renal was more than 100 µM throughout.

As to `COC(=O)/C(=C\c1ccc(N(CCC#N)CCC#N)cc1)NC(=O)c1cc([N+](=O)[O-])ccc1Cl`, the TGI in the assay with NCI-H23 lung, in the assay on SF-539 CNS, in the assay with HCT-15 colon, in the assay with SF-295 CNS, with NCI-H226 lung and in the assay on MOLT-4 leukemia was more than 100 µM in each case. For the same compound, the TGI in the assay with M14 melanoma and in the assay with A498 renal was more than 100 µM throughout.

As to `O=c1c2ccccc2nc(-c2ccccc2)n1NC(=S)Nc1ccccc1`, the TGI in the assay on NCI-H23 lung, in the assay with SF-539 CNS, with HCT-15 colon, in the assay on SF-295 CNS, with NCI-H226 lung and with MOLT-4 leukemia was more than 100 µM throughout. Besides, the TGI in the assay with M14 melanoma and in the assay on A498 renal was more than 100 µM throughout.

Regarding `OCCNCCOc1ccc(/C(=C(/Cl)c2ccccc2)c2ccccc2)cc1`, the TGI with NCI-H23 lung was determined as 28.4 µM; with SF-539 CNS, 26.6 µM; in the assay with HCT-15 colon, 18.6 µM; in the assay with SF-295 CNS, 28.5 µM; with NCI-H226 lung, 45 µM; in the assay with MOLT-4 leukemia, 17.2 µM. The compound further had a TGI in the assay on M14 melanoma of 3.59 µM.

Turning to `CCOc1ccccc1NC(=O)C(=O)Cc1nc2ccccc2s1`, the concentration for total growth inhibition (TGI) in the assay on NCI-H23 lung, with SF-539 CNS, in the assay on HCT-15 colon, in the assay with SF-295 CNS, in the assay with NCI-H226 lung and in the assay on MOLT-4 leukemia was more than 100 µM each time. Moreover, the TGI with M14 melanoma and in the assay with A498 renal was more than 100 µM throughout.

For the compound `COC1=C(Br)C(=O)c2nc(C)ccc2C1=O`, the TGI is 27 µM with NCI-H23 lung; 36.1 µM with SF-539 CNS; 27.7 µM in the assay with HCT-15 colon; 34.7 µM in the assay with SF-295 CNS; 38.2 µM in the assay with NCI-H226 lung; more than 20.8 µM in the assay with MOLT-4 leukemia. Also, the figures for the TGI in the assay on M14 melanoma and in the assay with A498 renal were 28.4 µM and 36.4 µM, respectively.

Consider `[F][Sn]([F])([c]1ccccc1)[c]1ccccc1`, for which the GI50 was 1.85 µM in the assay on NCI-H23 lung; 2.13 µM in the assay on SF-539 CNS; 1.65 µM in the assay with HCT-15 colon; 1.99 µM in the assay with SF-295 CNS; 2.11 µM in the assay with NCI-H226 lung; 1.17 µM in the assay on MOLT-4 leukemia. For the same compound, the GI50 in the assay with M14 melanoma is 2.08 µM. Further, the TGI in the assay on NCI-H23 lung worked out at 3.7 µM; in the assay on SF-539 CNS it was 4.09 µM; in the assay with HCT-15 colon, 3.26 µM; in the assay with SF-295 CNS it was 3.85 µM; in the assay with NCI-H226 lung it was 4.26 µM; in the assay on MOLT-4 leukemia, 5.22 µM. The compound also showed a TGI in the assay on M14 melanoma of 4.45 µM.

For the compound `O=S1(=O)OCCOS(=O)(=O)C1Cl`, the TGI in the assay with NCI-H23 lung, in the assay with SF-539 CNS, in the assay on SF-295 CNS, in the assay with NCI-H226 lung, in the assay on MOLT-4 leukemia and in the assay with M14 melanoma was more than 100 µM each time. Moreover, the TGI in the assay with A498 renal is more than 100 µM.

On to `CC1CN1c1c(C(=O)/C=C/c2ccc(Cl)cc2)c(-c2ccccc2)nn(C)c1=O` (stereo not given), for which the TGI is 6.97 µM in the assay on NCI-H23 lung; 4.14 µM with SF-539 CNS; 3.55 µM in the assay on HCT-15 colon; more than 10 µM in the assay with SF-295 CNS; more than 10 µM with NCI-H226 lung; 8.02 µM in the assay on MOLT-4 leukemia. Further, the TGI in the assay with M14 melanoma was 5.63 µM; in the assay on A498 renal, more than 10 µM.

Turning to `CC(=O)OC1C2CCC1C1C2C2(Cl)C(Cl)=C(Cl)C1(Cl)C2(Cl)Cl` (stereo not given), the TGI in the assay with NCI-H23 lung was 25.8 µM; in the assay with SF-539 CNS, 30.7 µM; in the assay with SF-295 CNS, 23.7 µM; in the assay on NCI-H226 lung, 26.7 µM; in the assay with MOLT-4 leukemia, 26.4 µM; with M14 melanoma, 25.3 µM. This compound came in with a TGI with A498 renal of 27 µM.

With `CC(C)(C)OC(=O)N1N=NC2C1C1CC(OCc3ccccc3)(OCc3ccccc3)C2O1` (stereo not given), the total growth inhibition concentration (TGI) in the assay on NCI-H23 lung is 49.2 µM; in the assay with HCT-15 colon, more than 100 µM; in the assay on SF-295 CNS, more than 100 µM; in the assay on NCI-H226 lung, 55.4 µM; in the assay with MOLT-4 leukemia, more than 100 µM; in the assay with M14 melanoma, more than 100 µM. This compound also displayed a TGI with A498 renal of more than 100 µM.

As to `O=C1C(Cl)=C(Nc2ccccc2O)C(=O)N1Cc1ccccc1`, the GI50 is 17.9 µM in the assay with NCI-H23 lung; 19.5 µM in the assay on HCT-15 colon; 26.2 µM with SF-295 CNS; 20.1 µM in the assay with NCI-H226 lung; 24.5 µM in the assay on MCF7 breast; 19.6 µM with MOLT-4 leukemia. The GI50 in the assay on M14 melanoma and in the assay with A498 renal was 18.4 µM in each case. In addition, the TGI in the assay with NCI-H23 lung was 31.7 µM; with HCT-15 colon, 39.9 µM; with SF-295 CNS, 52.9 µM; in the assay on NCI-H226 lung, 48.8 µM; with MCF7 breast it was 64.6 µM; in the assay on MOLT-4 leukemia it was more than 100 µM. The TGI in the assay with M14 melanoma amounted to 32.3 µM; with A498 renal, 40.6 µM.

As for `N.N.NCCCCCCCCCN.O=C([O-])CC(=O)[O-].O=C([O-])CC(=O)[O-].[Pt+4].[Pt+4]`, the GI50 in the assay on NCI-H23 lung, in the assay on SF-539 CNS, in the assay on HCT-15 colon, in the assay on SF-295 CNS, in the assay with NCI-H226 lung and with MOLT-4 leukemia was more than 100 µM in each case. In addition, the GI50 in the assay on M14 melanoma is 50.5 µM; with A498 renal, more than 100 µM. For the same compound, the total growth inhibition concentration (TGI) in the assay on NCI-H23 lung, with SF-539 CNS, in the assay with HCT-15 colon, with SF-295 CNS, in the assay on NCI-H226 lung and with MOLT-4 leukemia was more than 100 µM throughout. The TGI with M14 melanoma and in the assay with A498 renal was more than 100 µM in each case.

In the case of `OCC(O)CNc1ccnc2cc(Cl)ccc12` (stereo not given), the concentration for total growth inhibition (TGI) in the assay on NCI-H23 lung, in the assay with SF-539 CNS, in the assay with HCT-15 colon, with SF-295 CNS, in the assay on NCI-H226 lung and in the assay with MOLT-4 leukemia was more than 100 µM each time. Also, the concentration for total growth inhibition (TGI) in the assay with M14 melanoma and in the assay on A498 renal was more than 100 µM in each case.

By TGI is commonly meant the concentration at which net growth stops. Lower therefore signals greater sensitivity of the cells. As usually defined, the GI50 is the concentration at which growth is held to half of that of the control.

Source of the values: PubChem BioAssay (NCI).
